Laboratory results reported in patent US4372947A, “Antibiotic saframycin S and process for producing the same” (Arai; Tadashi, priority 1980, dated 1983).
≈ marks a conversion by molar mass, not a printed value. Entries after “also recorded” stand apart in the source; their conditions may differ. Read-outs that look alike come from different tables or passages of the source.

Key:
Klebsiella pneumoniae = assay: Antimicrobial spectrum (MIC); format: cell-based; settings: 1% glucose nutrient agar, 37° C., 24 or 48 hours
[1] = system: DNA of transplantable cancer cells; assay: Mechanism of action: reaction with DNA of transplantable cancer cells
Corynebacterium xerosis = assay: Antimicrobial spectrum (MIC); format: cell-based; settings: 1% glucose nutrient agar, 37° C., 24 or 48 hours
[2] = system: Streptococcus pyogenes Cook; assay: Antimicrobial spectrum (MIC); format: cell-based; settings: blood agar, 37° C., 24 or 48 hours
Mycobacterium phlei = assay: Antimicrobial spectrum (MIC); format: cell-based; settings: 3% glycerol nutrient agar (acid-fast bacteria), 37° C., 24 or 48 hours
Ehrlich's ascites tumor = assay: Antitumor activity, Ehrlich's ascites tumor; format: in vivo; settings: mouse tumor
various microorganisms = assay: Growth inhibition of various microorganisms; format: cell-based; settings: at low concentrations
[3] = system: Corynebacterium dephtheriae; assay: Antimicrobial spectrum (MIC); format: cell-based
Staphylococcus albus = assay: Antimicrobial spectrum (MIC); format: cell-based; settings: 1% glucose nutrient agar, 37° C., 24 or 48 hours
Brucella abortus = assay: microbe, parasite or virus in culture; format: cell-based
Streptococcus faecalis = assay: Antimicrobial spectrum (MIC); format: cell-based; settings: 1% glucose nutrient agar, 37° C., 24 or 48 hours
tumor = settings: Japanese Patent Lay Open No. 44098/1979; cited from earlier work
Nocardia asteroides = assay: Antimicrobial spectrum (MIC); format: cell-based; settings: 37° C., 24 or 48 hours
[4] = system: Shigella dysenteriae Shiga; assay: microbe, parasite or virus in culture; format: cell-based
Staphylococcus citreus = assay: Antimicrobial spectrum (MIC); format: cell-based; settings: 1% glucose nutrient agar, 37° C., 24 or 48 hours
Bacillus subtilis PCI219 = assay: Antimicrobial spectrum (MIC); format: cell-based; settings: 1% glucose nutrient agar, 37° C., 24 or 48 hours
[5] = system: Staphylococcus aureus Smith; assay: Antimicrobial spectrum (MIC); format: cell-based; settings: 1% glucose nutrient agar, 37° C., 24 or 48 hours
melanoma B16 = assay: Antitumor activity, melanoma B16; format: in vivo; settings: mouse tumor
leukemia P388 = assay: Antitumor activity, leukemia P388; format: in vivo; settings: mouse tumor
[6] = system: Streptococcus pyogenes 090R; assay: Antimicrobial spectrum (MIC); format: cell-based; settings: blood agar, 37° C., 24 or 48 hours
Pseudomonas aeruginosa = assay: Antimicrobial spectrum (MIC); format: cell-based; settings: 1% glucose nutrient agar, 37° C., 24 or 48 hours
S-180 solid cancer = assay: Antitumor activity, S-180 solid cancer; format: in vivo; settings: mouse tumor
Mycobacterium sp. 607 = assay: Antimicrobial spectrum (MIC); format: cell-based; settings: 3% glycerol nutrient agar (acid-fast bacteria), 37° C., 24 or 48 hours
[7] = system: RNA synthesis (Escherichia coli RNA polymerase, calf thymus DNA); assay: RNA synthesis in in vitro reaction mixture; format: biochemical
[8] = system: synthesis of ribosomal RNA and messenger RNA; assay: Mechanism of action: synthesis of ribosomal RNA and messenger RNA; settings: transplantable cancer cells
Salina lutea = assay: Antimicrobial spectrum (MIC); format: cell-based
gastric cancer of man = assay: Growth inhibition of gastric cancer of man heterotransplanted to the nude mouse; format: in vivo
[9] = Biological activity compared between saframycins
bacillus cereus = assay: Antimicrobial spectrum (MIC); format: cell-based; settings: 1% glucose nutrient agar, 37° C., 24 or 48 hours
Mycobacterium avium = assay: Antimicrobial spectrum (MIC); format: cell-based; settings: 3% glycerol nutrient agar (acid-fast bacteria), 37° C., 24 or 48 hours
leukemia L1210 = assay: Antitumor activity, leukemia L1210; format: in vivo; settings: mouse tumor
Candida albicans 7N = assay: Antimicrobial spectrum (MIC); settings: Sabouraud dextrose agar, 27° C., 48 hours
Salmonella typhimurium = assay: Antimicrobial spectrum (MIC); format: cell-based; settings: 1% glucose nutrient agar, 37° C., 24 or 48 hours
Serratia marcescens = assay: Antimicrobial spectrum (MIC); format: cell-based; settings: 1% glucose nutrient agar, 37° C., 24 or 48 hours
Escherichia coli = assay: Antimicrobial spectrum (MIC); format: cell-based; settings: 1% glucose nutrient agar, 37° C., 24 or 48 hours
[10] = system: mouse lymphoid leukemia P388; assay: Effects on mouse lymphoid leukemia P388 in BDF1 mice; format: in vivo; settings: for survival period of treated group over survival period of control group: i.p., 1×10^6 cells i.p., BDF1 mice; for increase of survival period: treatment 1-10 diseased days, 1×10^6 cells
Description: The effects of saframycin S on mouse lymphoid leukemia P388 were studied with BDF1 mice.

Aspergillus niger = assay: Antimicrobial spectrum (MIC); settings: Sabouraud dextrose agar, 27° C., 48 hours
male DDY strain mice = assay: Acute toxicity LD50 in male DDY strain mice; format: in vivo, mouse; settings: male DDY mice 18-20 g
transplantable tumors = assay: Activity against transplantable tumors; settings: in vivo
[11] = system: gram-positive bacteria and some acidfast bacteria or gram-negative bacteria; assay: Antibacterial activity, summary of spectrum; format: cell-based
Pencillium glaucum = assay: Antimicrobial spectrum (MIC); format: cell-based; settings: Sabouraud dextrose agar, 27° C., 48 hours
Description: (§1) Medium and culture condition:

Rhodotorula glutinis = assay: Antimicrobial spectrum (MIC); format: cell-based; settings: Sabouraud dextrose agar, 27° C., 48 hours
Description: as §1

Mucor mucedo = assay: Antimicrobial spectrum (MIC); format: cell-based; settings: Sabouraud dextrose agar, 27° C., 48 hours
Description: as §1

[12] = system: Trichophyton mentagrophytes; assay: Antimicrobial spectrum (MIC); format: cell-based; settings: Sabouraud dextrose agar, 27° C., 48 hours
Description: as §1

Aspergillus oryzae = assay: Antimicrobial spectrum (MIC); format: cell-based; settings: Sabouraud dextrose agar, 27° C., 48 hours
Description: as §1

Saccharomyces cerevisiae = assay: Antimicrobial spectrum (MIC); format: cell-based; settings: Sabouraud dextrose agar, 27° C., 48 hours
Description: as §1

[13] = system: Staphylococcus aureus 209P; assay: Antimicrobial spectrum (MIC); format: cell-based; settings: 1% glucose nutrient agar, 37° C., 24 or 48 hours
[14] = system: Staphylococcus salivarius; assay: Antimicrobial spectrum (MIC); format: cell-based; settings: 1% glucose nutrient agar, 37° C., 24 or 48 hours
[15] = 1% glucose nutrient agar, 37° C., 24 or 48 hours

In the case of `COC1=C(C)C(=O)C2=C(C1=O)C1C3CC4=C(C(=O)C(OC)=C(C)C4=O)C(CNC(=O)C(C)=O)N3C(C#N)C(C2)N1C` (centres unmarked) [Saframycin A, reference compound], the MIC (Klebsiella pneumoniae; Klebsiella pneumoniae, read-out: MIC) is reported as 1.56 µg/mL (≈ 2.77 µM), the “reaction with DNA, inhibition of template activity” value [1] is reported as “specifically reacted with DNA of transplantable cancer cells to inhibit their template activity” and the MIC (Corynebacterium xerosis; Corynebacterium xerosis, read-out: MIC) is reported as 0.012 µg/mL (≈ 0.0213 µM). The MIC ([2]; Streptococcus pyogenes, read-out: MIC) was 1.56 µg/mL (≈ 2.77 µM), the MIC (Mycobacterium phlei; Mycolicibacterium phlei, read-out: MIC) was 1.56 µg/mL (≈ 2.77 µM) and the “effect on Ehrlich's ascites tumor” value (Ehrlich's ascites tumor) was “effective”. For the same compound, the “inhibition of growth of various microorganisms” value (various microorganisms) was “effective in inhibiting the growth of various microorganisms at low concentrations”, the MIC ([3]; Corynebacterium) was 0.001 µg/mL (≈ 0.00178 µM) and the MIC (Staphylococcus albus; Staphylococcus, read-out: MIC) was 0.006 µg/mL (≈ 0.0107 µM). The MIC (Brucella abortus; Brucella abortus) was 1.56 µg/mL (≈ 2.77 µM), the MIC (Streptococcus faecalis; Enterococcus faecalis, read-out: MIC) was 1.56 µg/mL (≈ 2.77 µM) and the antitumor effect (tumor) was “strong antitumor effect”. For the same compound, the MIC (Nocardia asteroides; Nocardia asteroides, read-out: MIC) was 50 µg/mL (≈ 88.9 µM), the MIC ([4]; Shigella dysenteriae) was 1.56 µg/mL (≈ 2.77 µM) and the MIC (Staphylococcus citreus; Staphylococcus, read-out: MIC) was 0.006 µg/mL (≈ 0.0107 µM). For the same compound, the MIC (Bacillus subtilis PCI219; Bacillus subtilis, PCI219, read-out: MIC) was 0.025 µg/mL (≈ 0.0444 µM), the MIC ([5]; Staphylococcus aureus, read-out: MIC) was 0.025 µg/mL (≈ 0.0444 µM) and the “effect on melanoma B16” value (melanoma B16) was “effective”. The “effect on leukemia P388” value (leukemia P388) was “effective”, the MIC ([6]; Streptococcus pyogenes, 090R, read-out: MIC) was 3 µg/mL (≈ 5.33 µM) and the MIC (Pseudomonas aeruginosa; Pseudomonas aeruginosa, read-out: MIC) was 100 µg/mL (≈ 178 µM). For the same compound, the “effect on S-180 solid cancer” value (S-180 solid cancer) was “effective”, the MIC (Mycobacterium sp. 607; Mycobacterium, SP.607, read-out: MIC) was 1.56 µg/mL (≈ 2.77 µM) and the “inhibition of RNA synthesis in vitro” value ([7]; Escherichia coli RNA polymerase, calf thymus DNA, RNA precursor, no reducing agent) was “did not inhibit RNA synthesis”. The “inhibition of RNA synthesis in vitro” value ([7]; with dithiothreitol (DTT) and other reducing agent) was “RNA synthesis inhibition equivalent to in vivo effect was observed”, the “synthesis of ribosomal RNA and messenger RNA” value [8] was “prevented synthesis of ribosomal RNA and messenger RNA” and the MIC (Salina lutea) was 0.006 µg/mL (≈ 0.0107 µM). The “inhibition of growth of gastric cancer of man” value (gastric cancer of man) was “effective in inhibiting the growth of gastric cancer of man”, the “biological activity among saframycins A-E” value ([9]; among saframycins A-E) was “highest biological activity” and the MIC (bacillus cereus; Bacillus cereus, read-out: MIC) was 0.4 µg/mL (≈ 0.711 µM). For the same compound, the MIC (Mycobacterium avium; Mycobacterium avium, read-out: MIC) was 100 µg/mL (≈ 178 µM) and the “effect on leukemia L1210” value (leukemia L1210) was “effective”.
Compound `COC1=C(C)C(=O)C2=C(C1=O)[C@@H]1[C@@H]3CC4=C(C(=O)C(OC)=C(C)C4=O)[C@H](CNC(=O)C(C)=O)N3[C@@H](O)[C@H](C2)N1C` [Saframycin S] has an MIC (Klebsiella pneumoniae) of 1.56 µg/mL (≈ 2.82 µM), an MIC (Corynebacterium xerosis) of 0.001 µg/mL (≈ 0.00181 µM) and an MIC [2] of 0.05 µg/mL (≈ 0.0903 µM). The MIC (Mycobacterium phlei) was 0.8 µg/mL (≈ 1.45 µM), the MIC (Candida albicans 7N) was > 100 µg/mL and the MIC [3, 15] was 0.001 µg/mL (≈ 0.00181 µM). It also gave an MIC (Salmonella typhimurium) of 100 µg/mL (≈ 181 µM), an MIC (Staphylococcus albus) of 0.001 µg/mL (≈ 0.00181 µM) and an MIC (Brucella abortus; blood agar, 37° C., 24 or 48 hours) of 0.8 µg/mL (≈ 1.45 µM). The MIC (Streptococcus faecalis) was 1.56 µg/mL (≈ 2.82 µM), the MIC (Serratia marcescens) was 50.0 µg/mL (≈ 90.3 µM) and the MIC (Nocardia asteroides) was 6.25 µg/mL (≈ 11.3 µM). The MIC [4, 15] was 1.56 µg/mL (≈ 2.82 µM), the MIC (Escherichia coli) was 25.0 µg/mL (≈ 45.2 µM) and the “survival period of treated group over survival period of control group” value ([10]; 0.5 mg/kg daily for 10 days) was 146.2%. The “increase of survival period” value ([10]; 0.5 mg/kg/day) was 46.2%, the “survival period of treated group over survival period of control group” value ([10]; 0.75 mg/kg daily for 10 days) was 157.7% and the “increase of survival period” value ([10]; 0.75 mg/kg/day) was 57.7%. For the same compound, the “survival period of treated group over survival period of control group” value ([10]; 1.0 mg/kg daily for 10 days) was 161.5%, the “increase of survival period” value ([10]; 1.0 mg/kg/day) was 61.5% and the “survival period of treated group over survival period of control group” value ([10]; 1.5 mg/kg daily for 10 days) was 182.7%. For the same compound, the “increase of survival period” value ([10]; 1.5 mg/kg/day) was 82.7%, the MIC (Aspergillus niger) was > 100 µg/mL and the MIC (Staphylococcus citreus) was 0.001 µg/mL (≈ 0.00181 µM). The MIC (Bacillus subtilis PCI219) was 0.025 µg/mL (≈ 0.0452 µM), the MIC [5] was 0.001 µg/mL (≈ 0.00181 µM) and the MIC [6] was 0.05 µg/mL (≈ 0.0903 µM). The MIC (Pseudomonas aeruginosa) was 100 µg/mL (≈ 181 µM), the MIC (Mycobacterium sp. 607) was 1.56 µg/mL (≈ 2.82 µM) and the LD50 (male DDY strain mice; intraperitoneal injection) was 2.5 mg/kg. The LD50 (male DDY strain mice; intravenous injection) was 0.83 mg/kg, the MIC (Salina lutea; [15]) was 0.006 µg/mL (≈ 0.0108 µM) and the “activity against transplantable tumors” value (transplantable tumors) was “activity against transplantable tumors”. For the same compound, the “biological activities relative to saframycin A” value ([9]; compared with saframycin A) was “still more powerful biological activities in every point than saframycin A; also recorded: almost equal to that of saframycin A”, the MIC (bacillus cereus) was 0.4 µg/mL (≈ 0.723 µM) and the antibacterial activity [11] was “antibacterial activities mainly against gram-positive bacteria; also recorded: antibacterial activity mainly against gram-positive bacteria and some acidfast bacteria or gram-negative bacteria such as Mycobacterium, Shigella dysenteriae Shiga and Brucella”. For the same compound, the MIC (Pencillium glaucum) was 100 µg/mL (≈ 181 µM), the MIC (Rhodotorula glutinis) was 100 µg/mL (≈ 181 µM) and the MIC (Mucor mucedo) was 100 µg/mL (≈ 181 µM). It also gave an MIC [12] of 50 µg/mL (≈ 90.3 µM), an MIC (Aspergillus oryzae) of 100 µg/mL (≈ 181 µM) and an MIC (Saccharomyces cerevisiae) of 50 µg/mL (≈ 90.3 µM). For the same compound, the MIC [13] was 0.01 µg/mL (≈ 0.0181 µM), the MIC [14] was 25.0 µg/mL (≈ 45.2 µM) and the MIC (Mycobacterium avium) was 50.0 µg/mL (≈ 90.3 µM).
